For the assay, the system named is mouse colon cancer cell line MC38. Nature of the assay: Anti-tumor action on mouse colon cancer cell line MC38 subcutaneous cancer-bearing model. Type of assay: in vivo. To be noted: for average volume of tumors on day 14: C57/BL6 mice; for Number of cases where tumor was eliminated: observed until 28th day, cases/n; for mice in which cancer had been eliminated: single administration or combined use with 4H2. The protocol:
Biological Example 1: Evaluation of Anti-Tumor Action by Combined Use of Compound A and Anti-PD-1 Antibody on Mouse Colon Cancer Cell Line MC38 Subcutaneous Cancer-Bearing Model (In Vivo)
For the compound A, mouse feed CRF-1 containing 0.0013% or 0.013% compound A was manufactured by Oriental Yeast Co., Ltd. so as to be administered at a dose of 2 or 20 mg/kg/day via diet. 4H2 as the anti-mouse PD-1 antibody, which had been prepared in KITAYAMA LABES CO., LTD., was obtained. C57/BL6 mouse colon cancer cell line MC38 was subcutaneously transplanted into dorsal parts of […] syngeneic mice (C57/BL6, female, 6 weeks old (Charles River Laboratories Japan, Inc.)) to produce MC38 subcutaneous cancer-bearing mice. On the day when the average of tumor volumes reached 150 mm^3, group assignment was carried out based on the tumor volumes (the day on which administration was started was defined as Day 0). To the MC38 subcutaneous cancer-bearing mice, PBS (on days 0, 6, 12, 18, and 24, intraperitoneal administration, n=9), 4H2 (on Day 0, 20 mg/kg/day and on days 6, 12, 18, and 24, 10 mg/kg/day, intraperitoneal administration, n=8), the compound A (on days 0 to 28, 2 mg/kg, administration via diet (n=9)), the compound A (on days 0 to 28, 20 mg/kg, administration via diet (n=9)), combined use of 4H2 and the compound A (compound A, 2 mg/kg (n=9)), and combined use of 4H2 and the compound A (compound A, 20 mg/kg (n=9)) were administered. Change of the volume of tumor was observed continuously until the 28th day. Note here that, from the viewpoint of the animal ethics, a mouse whose tumor exceeded 3000 mm^3 in volume was euthanatized, and evaluation for the group to which the euthanatized mouse belonged was stopped at this point.

1 molecule from US20190099413A1, “DRUG FOR CANCER THERAPY CHARACTERIZED IN THAT AXL INHIBITOR AND IMMUNE CHECKPOINT INHIBITOR ARE ADMINISTERED IN COMBINATION” (ONO PHARMACEUTICAL CO., LTD., priority 2016, published 2019) can be followed below.

For the molecule `COc1cc2nccc(Oc3ccc(NC(=O)c4cc5c(n(-c6ccccc6)c4=O)CCCC5=O)nc3)c2cc1OC` [Compound A, N-{5-[(6,7-dimethoxy-4-quinolinyl)oxy]-2-pyridinyl}-2,5-dioxo-1-phenyl-1,2,5,6,7,8-hexahydro-3-quinolinecarboxamide], the “average volume of tumors on day 14” value is 1379.5 mm^3 (compound A 2 mg/kg via diet days 0 to 28, alone or combined with 4H2 (20 then 10 mg/kg/day i.p.)) and 639.3 mm^3 (compound A 20 mg/kg via diet days 0 to 28, alone or combined with 4H2 (20 then 10 mg/kg/day i.p.)). The “Number of cases where tumor was eliminated” value runs as follows: (compound A 2 mg/kg via diet days 0 to 28, alone or combined with 4H2) 1/9; (compound A 20 mg/kg via diet days 0 to 28, alone or combined with 4H2) 1/9. The “mice in which cancer had been eliminated” value reads like this: (compound A 2 mg/kg) “one”; (compound A 20 mg/kg) “one”.
